Here are results for 20 compounds from patent US20160039767A1, “PYRAZOLE DERIVATIVES AS PRMT1 INHIBITORS AND USES THEREOF” (EPIZYME, INC., priority 2013, published 2016).

Read-outs that look alike come from different tables or passages of the source.

The target in one assay is T1, PRMT1 (Homo sapiens, UniProt Q99873).
T1 construct: GST-tagged PRMT1; made in house; host or cells: High Five insect cells (baculovirus, pFastBacI)
Put plainly: PRMT1 Biochemical Assay (3H-SAM Flashplate, histone H4 peptide substrate). To be noted: Biochemical IC50 (Numerical, μM) PRMT1, single experiment or average of multiple experiments, Table 2a. The source says: S-adenosylmethionine (SAM), S-adenosylhomocysteine (SAH), bicine, Tween20, dimethylsulfoxide (DMSO), bovine skin gelatin (BSG), and Tris(2-carboxyethyl)phosphine hydrochloride solution (TCEP) were purchased from Sigma-Aldrich at the highest level of purity possible. ^3H-SAM was purchase from American Radiolabeled Chemicals with a specific activity of 80 Ci/mmol. 384-well streptavidin Flashplates were purchased from PerkinElmer.
Recombinant baculovirus were generated according to Bac-to-Bac kit instructions (Life Technologies). Protein over-expression was accomplished by infecting exponentially growing High Five insect cell culture at 1.5×10^6 cell/ml with 1:100 ratio of virus. Infections were carried out at 27° C. for 48 hours, harvested by centrifugation, and stored at −80° C. for purification.
GST-tagged PRMT1 was eluted with 50 mM Tris, 2 mM glutathione, pH 7.8, dialysed in buffer A and concentrated to 1 mg/mL.
General Procedure for PRMT1 Enzyme Assays on Peptide Substrates.
The assays were all performed in a buffer consisting of 20 mM Bicine (pH=7.6), 1 mM TCEP, 0.005% BSG, and 0.002% Tween 20, prepared on the day of use. […] DMSO (1 ul) was added to Columns 11, 12, 23, 24, rows A-H for the maximum signal control and 1 ul of SAH, a known product and inhibitor of PRMT1, was added to columns 11, 12, 23, 24, rows I-P for the minimum signal control. A cocktail (40 ul) containing the PRMT1 enzyme was added by Multidrop Combi (Thermo-Fisher). The compounds were allowed to incubate with PRMT1 for 30 min at room temperature, then a cocktail (10 ul) containing SAM and peptide was added to initiate the reaction (final volume=51 ul). […] The assays were stopped by the addition of non-radiolabeled SAM (10 ul) to a final concentration of 300 uM, which dilutes the ^3H-SAM to a level where its incorporation into the peptide substrate is no longer detectable. […] The plates were then read in a PerkinElmer TopCount plate reader to measure the quantity of ^3H-labeled peptide bound to the Flashplate surface, measured as disintegrations per minute (dpm) or alternatively, referred to as counts per minute (cpm).
Where dpm=disintegrations per minute, cmpd=signal in assay well, and min and max are the respective minimum and maximum signal controls.
Where top and bottom are the normally allowed to float, but may be fixed at 100 or 0 respectively in a 3-parameter fit. The Hill Coefficient normally allowed to float but may also be fixed at 1 in a 3-parameter fit. Y is the % inhibition and X is the compound concentration.

A further assay concerns RKO cells. The assay can be described thus: RKO Methylation Assay (In Cell Western for mono-methyl arginine and DNA content). The class given is cell-based. To be noted: Homo sapiens. The source says: RKO adherent cells were purchased from ATCC (American Type Culture Collection), Manassas, Va., USA. DMEM/Glutamax medium, penicillin-streptomycin, heat inactivated fetal bovine serum, 0.05% trypsin and D-PBS were purchased from Life Technologies, Grand Island, N.Y., USA. Odyssey blocking buffer, 800CW goat anti-rabbit IgG (H+L) antibody, and Licor Odyssey infrared scanner were purchased from Licor Biosciences, Lincoln, Nebr., USA. Mono-methyl arginine antibody was purchased from Cell Signaling Technology, Danvers, Mass., USA. Methanol was purchased from VWR, Franklin, Mass., USA. 10% Tween 20 was purchased from KPL, Inc., Gaithersburg, Md., USA. DRAQ5 was purchased from Biostatus Limited, Leicestershire, UK.
RKO adherent cells were maintained in growth medium (DMEM/Glutamax medium supplemented with 10% v/v heat inactivated fetal bovine serum and 100 units/mL penicillin-streptomycin) and cultured at 37° C. under 5% CO2.
Cell Treatment, in Cell Western (ICW) for Detection of Mono-Methyl Arginine and DNA Content.
Compound (100 nL) from a 96-well source plate was added directly to 384 well cell plate. Plates were incubated at 37° C., 5% CO2 for 72 hours. After three days of incubation, plates were brought to room temperature outside of the incubator for ten minutes and blotted on paper towels to remove cell media. 50 μL of ice cold 100% methanol was added directly to each well and incubated for 30 min at room temperature. After 30 min, plates were transferred to a Biotek EL406 plate washer and washed 2 times with 100 μL per well of wash buffer (1×PBS). Next 60 μL per well of Odyssey blocking buffer (Odyssey Buffer with 0.1% Tween 20 (v/v)) were added to each plate and incubated 1 hour at room temperature. Blocking buffer was removed and 20 μL per well of primary antibody was added (mono-methyl arginine diluted 1:200 in Odyssey buffer with 0.1% Tween 20 (v/v)) and plates were incubated overnight (16 hours) at 4° C. Plates were washed 5 times with 100 µL per well of wash buffer. Next 20 μL per well of secondary antibody was added (1:200 800CW goat anti-rabbit IgG (H+L) antibody, 1:1000 DRAQ5 (Biostatus limited) in Odyssey buffer with 0.1% Tween 20 (v/v)) and incubated for 1 hour at room temperature. The plates were washed 5 times with 100 μL per well wash buffer then 2 times with 100 μL per well of water. Plates were allowed to dry at room temperature then imaged on the Licor Odyssey machine which measures integrated intensity at 700 nm and 800 nm wavelengths. Both 700 and 800 channels were scanned.
First, the ratio for each well was determined by:
Each plate included fourteen control wells of DMSO only treatment (minimum activation) as well as fourteen control wells for maximum activation treated with 20 μM of a reference compound. The average of the ratio values for each control type was calculated and used to determine the percent activation for each test well in the plate. Reference compound was serially diluted three-fold in DMSO for a total of nine test concentrations, beginning at 20 μM. Percent activation was determined and EC30 curves were generated using triplicate wells per concentration of compound.

Where [1] appears, read: RKO cells, 72 hours, mono-methyl arginine, class symbols, Table 3, read-out: In Cell Western data EC30.
Where [2] appears, read: RKO cells, 72 hours, mono-methyl arginine, single experiment or average of multiple experiments, Table 3a, read-out: In Cell Western data (Numerical, μM) EC30.
The mark [3] stands for this setting: RKO, 72 h, read-out: In Cell Western data (Numerical, μM) EC30.
The mark [4] stands for this setting: RKO, 72 h, read-out: In Cell Western data EC30.

T1 sequence (Q99873 with tags, fused parts or gaps): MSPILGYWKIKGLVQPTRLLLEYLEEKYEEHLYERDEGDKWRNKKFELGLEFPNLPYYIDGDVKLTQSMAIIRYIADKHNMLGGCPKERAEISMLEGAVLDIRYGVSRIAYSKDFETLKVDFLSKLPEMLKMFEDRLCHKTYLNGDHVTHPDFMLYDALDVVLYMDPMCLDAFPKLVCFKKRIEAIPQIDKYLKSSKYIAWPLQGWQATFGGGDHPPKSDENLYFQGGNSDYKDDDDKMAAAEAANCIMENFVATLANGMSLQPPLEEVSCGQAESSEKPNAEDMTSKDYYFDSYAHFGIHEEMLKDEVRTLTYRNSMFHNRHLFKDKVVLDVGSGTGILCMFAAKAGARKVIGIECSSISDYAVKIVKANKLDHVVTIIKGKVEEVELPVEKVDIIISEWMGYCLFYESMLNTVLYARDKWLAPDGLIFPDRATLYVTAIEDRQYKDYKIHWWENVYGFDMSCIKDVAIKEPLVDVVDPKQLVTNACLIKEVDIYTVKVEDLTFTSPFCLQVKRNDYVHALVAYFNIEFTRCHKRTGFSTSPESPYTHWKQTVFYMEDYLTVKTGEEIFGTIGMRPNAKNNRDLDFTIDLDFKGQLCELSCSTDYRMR

In the case of `CNCCN(C)Cc1c[nH]nc1-c1cc(Oc2cccnc2)cc(C(F)(F)F)c1` [Compound 51], the IC50 (as a rule, the concentration that gives 50% inhibition) against PRMT1 stood at 0.0513 µM. Further, the EC30 (in general, the concentration at which the effect reaches the 30% level) is 3.01 to 12 µM with RKO cells (setting [1]) and 6.9 µM in the assay on RKO cells (setting [2]).
Take `CNCCN(C)Cc1n[nH]cc1-c1ccc(OCCCOC)c(C(F)(F)F)c1` [Compound 20]: half-maximal inhibition on PRMT1 (IC50) required 0.0553 µM. Further, the EC30 was less than 3 µM in the assay on RKO cells (setting [1]) and 2.04 µM in the assay on RKO cells (setting [2]).
Consider `CNCCN(C)Cc1c[nH]nc1-c1ccc(OCCOC)c(C(F)(F)F)c1` [Compound 14], for which the IC50 on PRMT1 is 0.00554 µM. For the same compound, the EC30 with RKO cells (setting [3]) is 0.383 µM; in the assay with RKO cells (setting [4]), less than 3 µM.
At PRMT1, `CNCCN(C)Cc1c[nH]nc1-c1cc(OCCCC(F)(F)F)cc(C(F)(F)F)c1` [Compound 48] had an IC50 of 0.0303 µM. Also, the EC30 with RKO cells (setting [1]) is 3.01 to 12 µM; in the assay on RKO cells (setting [2]), 4.2 µM.
As for `CC(C)Oc1cc(-c2n[nH]cc2CN(C)CCN)cc(C(F)(F)F)c1` [Compound 6], 0.0687 µM corresponded to half-maximal inhibition at PRMT1 (IC50). The EC30 in the assay with RKO cells (setting [3]) is 10.8 µM; in the assay on RKO cells (setting [4]), 3.01 to 12 µM.
Turning to `CNCCN(C)Cc1n[nH]cc1-c1ccc(OCCOC)c(C(F)(F)F)c1` [Compound 21], on PRMT1, inhibition was half-maximal at 0.0328 µM (IC50). Also, the figures for the EC30 in the assay on RKO cells (setting [1]) and in the assay with RKO cells (setting [2]) were less than 3 µM and 0.812 µM, respectively.
On PRMT1, `CNCCN(C)Cc1c[nH]nc1-c1cc(Oc2ccccn2)cc(C(F)(F)F)c1` [Compound 52] gave an IC50 of 0.0359 µM. The values for the EC30 with RKO cells (setting [1]) and in the assay with RKO cells (setting [2]) were 3.01 to 12 µM and 4.44 µM, respectively.
Compound `CNCCN(C)Cc1c[nH]nc1-c1ccc(OCCCOC)c(C(F)(F)F)c1` [Compound 13] returned an IC50 against PRMT1 of 0.0108 µM. Also, the EC30 with RKO cells (setting [3]) was 0.567 µM; with RKO cells (setting [4]) it was less than 3 µM.
`CNCCN(C)Cc1c[nH]nc1-c1cc(OCC2CCOCC2)cc(C(F)(F)F)c1` [Compound 46]: the IC50 on PRMT1 was determined as 0.0282 µM. Moreover, the EC30 in the assay on RKO cells (setting [3]) was 2.62 µM; in the assay with RKO cells (setting [4]), less than 3 µM.
Regarding `CNCCN(C)Cc1c[nH]nc1-c1cc(OCCc2ccccc2OC)cc(C(F)(F)F)c1` [Compound 50], the IC50 against PRMT1 was 0.0138 µM. Also, the EC30 is 3.01 to 12 µM in the assay on RKO cells (setting [1]) and 4.37 µM in the assay on RKO cells (setting [2]).
Consider `CNCCN(C)Cc1c[nH]nc1-c1cc(OCCCC(C)=O)cc(C(F)(F)F)c1` [Compound 49], for which the IC50 at PRMT1 was 0.0366 µM. Besides, the EC30 in the assay with RKO cells (setting [1]) is 3.01 to 12 µM; with RKO cells (setting [2]), 3.36 µM.
`CNCCN(C)Cc1c[nH]nc1-c1cc(OCCC(C)C)cc(C(F)(F)F)c1` [Compound 12] displayed an IC50 against PRMT1 of 0.00704 µM. The EC30 in the assay with RKO cells (setting [1]) was less than 3 µM; with RKO cells (setting [2]), 1.44 µM.
`CNCCN(C)Cc1n[nH]cc1-c1cc(OCCOC)cc(C(F)(F)F)c1` [Compound 30]: the IC50 on PRMT1 was found to be 0.109 µM. Besides, the EC30 in the assay with RKO cells (setting [1]) was 3.01 to 12 µM; in the assay with RKO cells (setting [2]), 13.1 µM.
For `CN(CCN)Cc1c[nH]nc1-c1ccc(Oc2ccccc2)c(C(F)(F)F)c1` [Compound 23], the IC50 against PRMT1 came to 0.00301 µM. For the same compound, the results for the EC30 with RKO cells (setting [3]) and in the assay on RKO cells (setting [4]) were 1.51 µM and less than 3 µM, respectively.
For the compound `CNCCN(C)Cc1c[nH]nc1-c1cc(Oc2ccccc2)cc(C(F)(F)F)c1` [Compound 36], at PRMT1, the IC50 was 0.0123 µM. For the same compound, the EC30 with RKO cells (setting [1]) was less than 3 µM; in the assay on RKO cells (setting [2]) it was 2.18 µM.
On PRMT1, `CNCCN(C)Cc1c[nH]nc1-c1ccc(OCC(C)C)c(C(F)(F)F)c1` [Compound 10] showed an IC50 of 0.00451 µM. Moreover, the results for the EC30 with RKO cells (setting [3]) and in the assay with RKO cells (setting [4]) were 0.537 µM and less than 3 µM, respectively.
`CCCOc1ccc(-c2c[nH]nc2CN(C)CCNC)cc1C(F)(F)F` [Compound 28] showed an IC50 against PRMT1 of 0.00659 µM. For the same compound, the EC30 in the assay on RKO cells (setting [1]) is less than 3 µM; in the assay with RKO cells (setting [2]) it was 1.1 µM.
In turn, `CNCCN(C)Cc1c[nH]nc1-c1cc(OCCOC)cc(C(F)(F)F)c1` [Compound 16] had an IC50 on PRMT1 of 0.0204 µM. The EC30 in the assay with RKO cells (setting [1]) is less than 3 µM; with RKO cells (setting [2]), 2.24 µM.
As for `CCC(CC)Oc1cc(-c2n[nH]cc2CN(C)CCNC)cc(C(F)(F)F)c1` [Compound 47], the IC50 against PRMT1 worked out at 0.0135 µM. In addition, the EC30 was less than 3 µM in the assay with RKO cells (setting [1]) and 2.67 µM with RKO cells (setting [2]).
The compound `CNCCN(C)Cc1c[nH]nc1-c1ccc(CC(C)C)c(C(F)(F)F)c1` [Compound 34] yielded an IC50 against PRMT1 of 0.00444 µM. For the same compound, the values for the EC30 in the assay with RKO cells (setting [3]) and in the assay on RKO cells (setting [4]) were 0.955 µM and less than 3 µM, respectively.
